In paper PMC10799935, “Discovery of a peripheral 5HT2A antagonist as a clinical candidate for metabolic dysfunction-associated steatohepatitis” (Nature Communications, 2024):
Several values for one entry are separate records, joined by “and”; a condition that tells them apart may be missing. Identical values can stand only once.

Legend:
HFD-fed C57BL/6J mice [1] = experiment: DIO mice: blood profiling (serum cholesterol, triglyceride); format: in vivo, mouse; conditions: for Serum TG levels, Mean Diff. (Vehicle vs. treated) / Serum total cholesterol levels, Mean Diff. (Vehicle vs. treated) / Serum TG levels, group mean / Serum total cholesterol levels (CHO), group mean: DIO mice; for Serum TG levels, Mean Diff. (Vehicle vs. treated) / Serum total cholesterol levels, Mean Diff. (Vehicle vs. treated): Dunnett's multiple comparisons test; for Serum TG levels, group mean / Serum total cholesterol levels (CHO), group mean: PO
Description: Blood samples were obtained by cardiac puncture, and plasma was isolated. Blood profiling was performed by GC Pharma (Green Cross Corporation). Plasma TG and cholesterol were detected with an in vitro enzymatic colorimetric assay (CHOL2 and TRIGL; Roche, Germany) using a Cobas 8000 clinical analyzer with a c702 module (Roche).

[2] = Hepatocyte stability test, mouse; format: in vitro ADME; conditions: male, CD1, cryopreserved hepatocytes, pH 7.4, read-out: Hepatocyte stability (% remaining after 3 h)
Description: Hepatocyte incubations for the test compound (10 μM final concentration, n = 2 per each time point) were carried out in mouse, rat, dog, monkey and human cryopreserved hepatocytes, resuspended at a density of 0.5 million cells/ml of modified Krebs-Henseleit buffer (KHB). The information regarding the hepatocytes used in the experiment is as follows: liverPool® 10-donor mixed gender human (BioIVT, Cat.No. X008001, lot EAV), male cynomolgus monkey (BioIVT, Cat.No. M00305, lot COJ), male Beagle dog (BioIVT, Cat.No. M00205, lot USY), male Sprague Dawley rat (BioIVT, Cat.No. M00005, lot TQE) and male CD1 mouse (BioIVT, Cat.No.005052, lot LFF). In addition, the compound was also incubated with blank KHB. The final concentration of solvent (DMSO) was 0.1% of the final volume. The incubations were performed for 3 hours at 37°C and pH 7.4. Reactions were terminated at 0 and 180 minutes by the addition of 3 volumes of stop solution (acetonitrile/methanol (2:1, v/v) containing internal standard–diclofenac at 100 ng/ml). Samples (compound spiked buffer and compound spiked hepatocytes, as well as blank samples, i.e. hepatocytes with the same DMSO%) were then centrifuged and aliquots were transferred to 96-deep micronic tubes and frozen at -80 °C until LC-MS/MS analysis. […]

HFD-fed C57BL/6J mice [3] = experiment: DIO mice (HFD, 8 weeks): body weight; format: in vivo, mouse; conditions: for Body weight: Predicted (LS) mean diff., Vehicle vs. 11c: Dunnett's test; for 16hr fasting B.W.: DIO C57BL/6J mice, PO; for Body weight: DIO mice, individual mice and group Mean, in g (unit assumed)
Description: For in vivo efficacy in DIO models and CDAHFD models, the experimental protocol for this study was approved by the Institutional Animal Care and Use Committee (IACUC) at the Korea Advanced Institute of Science and Technology (No. KA2023-027-v2) or Kyungpook National University (No. KNU-20200134). All relevant ethical guidelines were followed. C57BL/6 J male mice (11 weeks old) were purchased from the Charles River Japan and were housed in a specific pathogen-free barrier facility under a regular light-dark cycle (12-hour light/12-hour dark) at 24°C with 40–60% humidity. Food (standard chow diet, Envigo, 2018S) and water were provided ad libitum. […] Mice were euthanized by the method of cervical dislocation. The measurement of lean and fat mass in live mice was performed by a body composition analyzer (LF50 BCA-analyzer, Bruker). After 6 h of fasting, mice were sacrificed, and tissue samples were obtained.

SMILES: Cc1nc2n(c(=O)c1CCN1CCC(=C3c4ccc(Cl)cc4CCc4cccnc43)CC1)CCCC2O (stereo not drawn) [Compound 11c]
- Serum TG levels, Mean Diff. (Vehicle vs. treated) (HFD-fed C57BL/6J mice [1]; 5mpk): 32.28 mg/dL
- Serum total cholesterol levels, Mean Diff. (Vehicle vs. treated) (HFD-fed C57BL/6J mice [1]; 5mpk): -18.72 mg/dL
- Serum TG levels, Mean Diff. (Vehicle vs. treated) (HFD-fed C57BL/6J mice [1]; 10mpk): 36.37 mg/dL
- Serum total cholesterol levels, Mean Diff. (Vehicle vs. treated) (HFD-fed C57BL/6J mice [1]; 10mpk): 0.9883 mg/dL
- Serum TG levels, group mean (HFD-fed C57BL/6J mice [1]; 5mpk): 71.94 mg/dL
- Serum total cholesterol levels (CHO), group mean (HFD-fed C57BL/6J mice [1]; 5mpk, 5 mg/kg): 220.6 mg/dL
- Serum TG levels, group mean (HFD-fed C57BL/6J mice [1]; 10mpk): 67.86 mg/dL
- Serum total cholesterol levels (CHO), group mean (HFD-fed C57BL/6J mice [1]; 10mpk, 10 mg/kg): 200.9 mg/dL
- serum triglyceride levels (HFD-fed C57BL/6J mice [1]; high-fat diet-induced NAFLD mice): significant reduction
- remaining at 3 h, 10 μM [2]: 75%
- Body weight: Predicted (LS) mean diff., Vehicle vs. 11c (HFD-fed C57BL/6J mice [3]; 5mpk, week 12): 0.7 g
- Body weight: Predicted (LS) mean diff., Vehicle vs. 11c (HFD-fed C57BL/6J mice [3]; 5mpk, week 13): 0.6 g
- Body weight: Predicted (LS) mean diff., Vehicle vs. 11c (HFD-fed C57BL/6J mice [3]; 5mpk, week 14): 0.7 g
- Body weight: Predicted (LS) mean diff., Vehicle vs. 11c (HFD-fed C57BL/6J mice [3]; 5mpk, week 15): 0.6 g
- Body weight: Predicted (LS) mean diff., Vehicle vs. 11c (HFD-fed C57BL/6J mice [3]; 5mpk, week 16): 1.1 g
- Body weight: Predicted (LS) mean diff., Vehicle vs. 11c (HFD-fed C57BL/6J mice [3]; 5mpk, week 17): 1.7 g
- Body weight: Predicted (LS) mean diff., Vehicle vs. 11c (HFD-fed C57BL/6J mice [3]; 5mpk, week 18): 2.1 g
- Body weight: Predicted (LS) mean diff., Vehicle vs. 11c (HFD-fed C57BL/6J mice [3]; 5mpk, week 19): 2.7 g
- Body weight: Predicted (LS) mean diff., Vehicle vs. 11c (HFD-fed C57BL/6J mice [3]; 5mpk, week 20): 2.7 g
- Body weight: Predicted (LS) mean diff., Vehicle vs. 11c (HFD-fed C57BL/6J mice [3]; 5mpk, week 21): 3.4 g
- body weight gain upon HFD (HFD-fed C57BL/6J mice [3]; 10 mpk daily oral gavage, 8 weeks, vs vehicle-treated mice): attenuated
- Body weight: Predicted (LS) mean diff., Vehicle vs. 11c (HFD-fed C57BL/6J mice [3]; 10mpk, week 12): 0.1 g
- Body weight: Predicted (LS) mean diff., Vehicle vs. 11c (HFD-fed C57BL/6J mice [3]; 10mpk, week 13): 0.9 g
- Body weight: Predicted (LS) mean diff., Vehicle vs. 11c (HFD-fed C57BL/6J mice [3]; 10mpk, week 14): 1.5 g
- Body weight: Predicted (LS) mean diff., Vehicle vs. 11c (HFD-fed C57BL/6J mice [3]; 10mpk, week 15): 1.8 g
- Body weight: Predicted (LS) mean diff., Vehicle vs. 11c (HFD-fed C57BL/6J mice [3]; 10mpk, week 16): 3.7 g
- Body weight: Predicted (LS) mean diff., Vehicle vs. 11c (HFD-fed C57BL/6J mice [3]; 10mpk, week 17): 6.3 g
- Body weight: Predicted (LS) mean diff., Vehicle vs. 11c (HFD-fed C57BL/6J mice [3]; 10mpk, week 18): 7.2 g
- Body weight: Predicted (LS) mean diff., Vehicle vs. 11c (HFD-fed C57BL/6J mice [3]; 10mpk, week 19): 7.7 g
- Body weight: Predicted (LS) mean diff., Vehicle vs. 11c (HFD-fed C57BL/6J mice [3]; 10mpk, week 20): 7.2 g
- Body weight: Predicted (LS) mean diff., Vehicle vs. 11c (HFD-fed C57BL/6J mice [3]; 10mpk, week 21): 7.2 g
- 16hr fasting B.W. (HFD-fed C57BL/6J mice [3]; 5mpk, group mean): 41.2
- 16hr fasting B.W. (HFD-fed C57BL/6J mice [3]; 5mpk, individual animals, 5 mg/kg): 43.7 and 38.6 and 37.5 and 35.1 and 41.4 and 48.5 and 43.4
- 16hr fasting B.W. (HFD-fed C57BL/6J mice [3]; 10mpk, group mean): 36.5
- 16hr fasting B.W. (HFD-fed C57BL/6J mice [3]; 10mpk, individual animals, 10 mg/kg): 33.5 and 41.1 and 34.8 and 42.8 and 35.7 and 31.2
- Body weight (HFD-fed C57BL/6J mice [3]; 5mpk PO, week 12 (2021.04.26), 5 mg/kg): 25.4 and 23.4 and 24.4 and 26.8 and 26.0 and 30.2 and 25.6
- Body weight (HFD-fed C57BL/6J mice [3]; 5mpk PO, week 13, 5 mg/kg): 29.8 and 27.5 and 28.5 and 28.2 and 28.9 and 32.0 and 29.6
- Body weight (HFD-fed C57BL/6J mice [3]; 5mpk PO, week 13, 5 mg/kg, mean): 29.2
- Body weight (HFD-fed C57BL/6J mice [3]; 5mpk PO, week 14, 5 mg/kg): 32.9 and 29.6 and 29.0 and 31.0 and 34.0 and 31.6
- Body weight (HFD-fed C57BL/6J mice [3]; 5mpk PO, week 15, 5 mg/kg): 35.3 and 30.6 and 29.8 and 29.5 and 33.2 and 37.1 and 34.1
- Body weight (HFD-fed C57BL/6J mice [3]; 5mpk PO, week 15, 5 mg/kg, mean): 32.8
- Body weight (HFD-fed C57BL/6J mice [3]; 5mpk PO, week 16, 5 mg/kg): 37.5 and 32.7 and 32.5 and 31.1 and 35.5 and 40.4 and 36.8
- Body weight (HFD-fed C57BL/6J mice [3]; 5mpk PO, week 16, 5 mg/kg, mean): 35.2
- Body weight (HFD-fed C57BL/6J mice [3]; 5mpk PO, week 17, 5 mg/kg): 39.7 and 34.6 and 33.9 and 32.4 and 37.7 and 43.6 and 39.6
- Body weight (HFD-fed C57BL/6J mice [3]; 5mpk PO, week 17, 5 mg/kg, mean): 37.4
- Body weight (HFD-fed C57BL/6J mice [3]; 5mpk PO, week 18, 5 mg/kg): 41.7 and 36.9 and 35.3 and 33.1 and 40.0 and 45.0 and 41.5
- Body weight (HFD-fed C57BL/6J mice [3]; 5mpk PO, week 18, 5 mg/kg, mean): 39.1
- Body weight (HFD-fed C57BL/6J mice [3]; 5mpk PO, week 19, 5 mg/kg): 43.5 and 38.6 and 37.3 and 34.8 and 41.8 and 47.5 and 43.3
- Body weight (HFD-fed C57BL/6J mice [3]; 5mpk PO, week 19, 5 mg/kg, mean): 41.0
- Body weight (HFD-fed C57BL/6J mice [3]; 5mpk PO, week 20, 5 mg/kg): 45.7 and 40.4 and 39.5 and 37.0 and 43.5 and 51.0 and 45.4
- Body weight (HFD-fed C57BL/6J mice [3]; 5mpk PO, week 20, 5 mg/kg, mean): 43.2
- Body weight (HFD-fed C57BL/6J mice [3]; 5mpk PO, week 21, 5 mg/kg): 44.4 and 40.2 and 39.8 and 36.4 and 42.4 and 50.0 and 45.2
- Body weight (HFD-fed C57BL/6J mice [3]; 5mpk PO, week 21, 5 mg/kg, mean): 42.6
- Body weight (HFD-fed C57BL/6J mice [3]; 10mpk PO, week 12 (2021.04.26), 10 mg/kg): 26.6 and 29.1
- Body weight (HFD-fed C57BL/6J mice [3]; 10mpk PO, week 13, 10 mg/kg): 29.9 and 31.2
- Body weight (HFD-fed C57BL/6J mice [3]; 10mpk PO, week 14, 10 mg/kg): 31.8 and 32.6
- Body weight (HFD-fed C57BL/6J mice [3]; 10mpk PO, week 15, 10 mg/kg): 34.0 and 33.3 and 29.5
- Body weight (HFD-fed C57BL/6J mice [3]; 10mpk PO, week 16, 10 mg/kg): 36.3 and 34.1 and 30.0
- Body weight (HFD-fed C57BL/6J mice [3]; 10mpk PO, week 17, 10 mg/kg): 36.6 and 35.0 and 29.8
- Body weight (HFD-fed C57BL/6J mice [3]; 10mpk PO, week 18, 10 mg/kg): 35.5 and 37.1
- Body weight (HFD-fed C57BL/6J mice [3]; 10mpk PO, week 19, 10 mg/kg): 34.6 and 39.9
- Body weight (HFD-fed C57BL/6J mice [3]; 10mpk PO, week 20, 10 mg/kg): 35.7 and 43.1
- Body weight (HFD-fed C57BL/6J mice [3]; 10mpk PO, week 21, 10 mg/kg): 36.0 and 43.2
